According to BindingDB's records for doi:10.7270/Q2N014W6 (Burnham Center for Chemical Genomics, 2008):

These compounds were tested against T1, Bcl-2-related protein A1 (Mus musculus, UniProt Q07440) (assay: displacement of Bid BH3 peptide from Bfl-1 – biochemical, fluorescence polarization, FITC-Bid, mouse, primary screen (AID 432)). Details: pH 7; 23 °C.
T1 sequence (Q07440 whole entry): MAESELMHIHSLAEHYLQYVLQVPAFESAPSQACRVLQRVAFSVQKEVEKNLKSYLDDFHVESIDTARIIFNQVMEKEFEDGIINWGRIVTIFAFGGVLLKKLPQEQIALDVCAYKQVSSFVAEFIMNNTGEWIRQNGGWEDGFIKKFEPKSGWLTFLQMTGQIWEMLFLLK

Row | IC50 [µM] | SMILES
1 | > 100 | CN1CCC2=C(C#N)C(=N)C(C#N)(C#N)C(c3cccc(Cl)c3Cl)C2C1 (stereo not drawn) [6-azanyl-8-[2,3-bis(chloranyl)phenyl]-2-methyl-1,3,8,8a-tetrahydroisoquinoline-5,7,7-tricarbonitrile]
2 | > 100 | CN1CCC2=C(C#N)C(=N)C(C#N)(C#N)[C@H](c3cccc(Cl)c3)C2C1 (stereo partly drawn) [(8S)-6-amino-8-(3-chlorophenyl)-2-methyl-1,3,8,8a-tetrahydroisoquinoline-5,7,7-tricarbonitrile]
3 | > 100 | Cc1ccc(C2C3CN(C(C)C)CCC3=C(C#N)C(=N)C2(C#N)C#N)cc1 (stereo not drawn) [SMR000034220]
4 | > 100 | CCCN1CCC2=C(C#N)C(=N)C(C#N)(C#N)C(c3cccc(OC)c3OC)C2C1 (stereo not drawn) [6-amino-8-(2,3-dimethoxyphenyl)-2-propyl-1,3,8,8a-tetrahydroisoquinoline-5,7,7-tricarbonitrile]

Further lines, the compound ahead of its results:

Row | SMILES | IC50 [µM]
5 | O=C1C(=O)N(c2ncccn2)C(c2cccc(Cl)c2)C1C(=O)c1ccco1 (stereo not drawn) [2-(3-chlorophenyl)-3-(furan-2-carbonyl)-4-hydroxy-1-pyrimidin-2-yl-2H-pyrrol-5-one] | > 100
6 | c1ccc(-c2ccc(C3=Nc4ncnn4C(c4ccco4)C3)cc2)cc1 (stereo not drawn) | > 100
7 | COc1ccc(N2C(=O)C(=Nc3c(C)n(C)n(-c4ccccc4)c3=O)C(Cl)C2=O)cc1 (stereo not drawn) [3-chloranyl-4-[(1,5-dimethyl-3-oxidanylidene-2-phenyl-pyrazol-4-yl)amino]-1-(4-methoxyphenyl)pyrrole-2,5-dione] | > 100
8 | OCCCc1nc2n(n1)C(c1cccs1)CC(c1ccccc1)=N2 (stereo not drawn) [3-(5-phenyl-7-thiophen-2-yl-1,7-dihydro-[1,2,4]triazolo[1,5-a]pyrimidin-2-yl)-1-propanol] | > 100
